# From article PMC7953584, “An Experimental Study on [^125I]I-pHLIP (Var7) for SPECT/CT Imaging of an MDA-MB-231 Triple-Negative Breast Cancer Mouse Model by Targeting the Tumor Microenvironment” (Molecular Imaging, 2021)
# Residues, ends and D or L forms follow the SMILES beside them.
# Assays:
# [1] = In vitro stability in PBS buffer (radiochemical purity); type: physicochemical; conditions: 24 h, paper chromatography
# Procedure: (§1) The purity of [^125I]I-pHLIP (Var7) was determined by paper chromatography. Normal saline was used as the developing agent, and Xinhua Grade 1 chromatography paper was used as the stationary phase. An appropriate amount of [^125I]I-pHLIP (Var7) eluent was aspirated by a capillary pipette and spotted at the origin of the chromatographic filter paper. After drying, the paper was placed vertically into a test tube containing the developing agent; the unfolded chromatographic filter paper was removed, air dried, and cut at intervals of 1 cm. The radioactivity count was measured segment by segment to calculate the radiochemical purity.
# (§2) The purified [^125I]I-pHLIP (Var7) was placed at 4°C, at room temperature (25°C) in PBS buffer, and at 37°C in mouse serum. The radiochemical purity at different time points was measured, and the stability was determined. • Two hundred microliters of purified [^125I]I-pHLIP (Var7) solution was placed at 4°C and at room temperature in PBS buffer. Radiochemical purity was determined immediately after purification and at 1, 2, 4, 8, and 24 h after purification • Fifty microliters of purified [^125I]I-pHLIP (Var7) solution was mixed with 100 μL of mouse serum and placed in a 37°C water bath. Radiochemical purity was determined immediately after mixing and at 1, 2, 4, 8, and 24 h after mixing
# [2] = In vitro stability in mouse serum at 37°C (radiochemical purity); type: in vitro ADME; conditions: 50 μL probe + 100 μL serum, paper chromatography, mean ± SD
# Procedure: as §1, §2
# [3] = test system: MDA-MB-231 tumor-bearing mice; assay: Small-animal SPECT/CT imaging; type: in vivo, BALB/c nude mice; conditions: 1 and 2 h after injection; 3.7 MBq/200 μL tail vein; thyroid blocked with 0.1% KI
# Procedure: A mouse model bearing a human breast cancer cell line, MDA-MB-231, was established. MDA-MB-231 cells were cultured using the conventional method. Cells were collected at the logarithmic growth phase and washed once with PBS. The cells were then diluted to prepare suspensions at a concentration of approximately 1 × 10^6 cells/mL, which were temporarily stored in an ice box. Female 4-week-old BALB/c nude mice (16-20 g) were selected. MDA-MB-231 cells were inoculated subcutaneously using a disposable insulin syringe inserted into the right lateral thighs of the nude mice. The number of inoculated cells in each nude mouse was approximately 0.1 mL. The nude mice were raised under specific pathogen-free (SPF) conditions.
# Imaging was started when the diameter of the tumor grew to 0.8-1.0 cm. Three days before imaging, 3 nude mice began to drink 0.1% KI solution to block the thyroid gland until the end of the experiment. • The machine was calibrated daily • Anesthesia Induction. […] Imaging settings for the SPECT/CT and reconstruction are as follows: the time per frame was 10 min, voxel size was 0.8 mm, number of subsets was 32, and number of iterations was 15 • The injection time, injection dose, and residual dose were recorded according to the tables in the experiment
compound,measurement,setting,value
CC(C)C[C@H](NC(=O)[C@H](CCC(=O)O)NC(=O)[C@H](CC(C)C)NC(=O)[C@H](CC(C)C)NC(=O)[C@H](CC(C)C)NC(=O)[C@@H](NC(=O)[C@H](CCC(=O)O)NC(=O)[C@@H](NC(=O)[C@@H]1CCCN1C(=O)[C@H](Cc1ccccc1)NC(=O)[C@H](CC(C)C)NC(=O)[C@H](Cc1c[nH]c2ccccc12)NC(=O)[C@H](CCC(=O)O)NC(=O)[C@H](CC(C)C)NC(=O)[C@H](Cc1ccc(O)c(I)c1)NC(=O)[C@H](CCCNC(=N)N)NC(=O)[C@H](C)NC(=O)[C@H](Cc1c[nH]c2ccccc12)NC(=O)[C@@H]1CCCN1C(=O)[C@H](CC(N)=O)NC(=O)[C@H](CCC(N)=O)NC(=O)[C@H](CCC(=O)O)NC(=O)[C@H](CCC(=O)O)NC(=O)[C@H](C)N)[C@@H](C)O)[C@@H](C)O)C(N)=O [[^125I]I-pHLIP (Var7)] (HELM PEPTIDE1{A.E.E.Q.N.P.W.A.R.[O=C([C@H](Cc1ccc(O)c(I)c1)N[*:1])[*:2]].L.E.W.L.F.P.T.E.T.L.L.L.E.L.[am]}$$$$V2.0),stability (radiochemical purity),[1]; 4°C,higher than 98%
same,stability (radiochemical purity),[1]; room temperature (25°C),higher than 98%
same,probe stability in serum (radiochemical purity),[2]; 1 h,97.8 ± 1.9%
same,probe stability in serum (radiochemical purity),[2]; 2 h,96.8 ± 1.0%
same,probe stability in serum (radiochemical purity),[2]; 4 h,94.5 ± 1.1%
same,probe stability in serum (radiochemical purity),[2]; 8 h,91.3 ± 2.6%
same,tumor visibility on SPECT/CT,[3],clearly visible tumors
